US20090030066A1, “SMALL MOLECULES FOR THE PROTECTION OF PANCREATIC CELLS” (priority 2007, published 2009)

How the values were obtained:
[1] = test system: human bone marrow-derived mesenchymal stem cells (MSC); assay: Expansion (cell count) of human bone marrow-derived mesenchymal stem cells; format: cell-based; settings: for Cell number per culture: Table 4 experiment; for Cell number/culture: Table 5 experiment
From the text: (§1) Bone marrow aspirates were taken from normal adult donors signed after informed consent according to a protocol approved by the appropriate Ethics Committee. For the preparation of bone marrow mesenchymal stem cells, essentially a widely used technique was used as described earlier by others [Pittenger, M. F., Mackay, A. M., Beck, S. C., Jaiswal, R. K., Douglas, R., Mosca, J. D., Moorman, M. A., Simonetti, D. W., Craig, S, and Marshak, D. R., Multilineage potential of adult human mesenchymal stem cells (1999) Science 284, 143-147]. Briefly, nucleated cells were isolated with a pre-prepared commercial density gradient (Lymphoprep, Nycomed, Pharma, Oslo, Norway) and resuspended in Dulbecco's modified Eagle's medium (DMEM) (GIBCO, Grand Island, N.Y.) supplemented with 10% fetal calf serum (FCS), 50 U/ml of penicillin, and 50 μg/ml of streptomycin (GIBCO). All nucleated cells were plated in 25-cm^2 flasks (BD Falcon, Bedford, Mass.) at 37° C. in humidified atmosphere containing 5% CO2. After 24 hours, nonadherent cells were removed and cryopreserved in liquid nitrogen until use. The remaining adherent cells were thoroughly washed with Hanks balanced salt solution (HBSS) (GIBCO). Fresh complete culture medium was added and replaced every 3 or 4 days (twice a week). When cells grew to about 80% confluence, they were suspended and harvested by incubating with a ready-made solution containing 0.25% trypsin and 1 mM EDTA (Sigma-Aldrich, St. Louis, Mo.) for 5 minutes at 37° C.; this cell suspension is designated as passage 1. These cells were further expanded with 1:3-1:5 splitting in 175-cm^2 flasks (BD Falcon).
The total numbers of nucleated and viable cells were determined with a hemocytometer, using Turck's solution and trypan blue stain, respectively. The morphology of MSC was examined every week under an inverted microscope (Olympos CK2, Tokyo, Japan) to verify that cells retained their structural characteristics. In the two experiments described below, MSCs were split into 24-well “F-bottom” plates at passage 5.
In both experiments, about 80% confluent cells were split into 24-well “F-bottom” plates. Then after 24 hours in 10% serum containing medium (at about 30-35% confluence), the medium was replaced for either serum-free medium or 2% or 10 fetal calf serum containing medium. […] In both experiments, the data are the mean ±S.D. of 5 incubations.

[2] = test system: human mesenchymal stem cells; assay: Survival/attachment of human mesenchymal stem cells, compound present during plating; format: cell-based; settings: 5-10 μM, 10% or 2% serum, 24 h
From the text: as §1, with “After 24 hours, nonadherent cells were removed and cryopreserved in liquid nitrogen until use. The remaining adherent cells were thoroughly washed with Hanks balanced salt solution (HBSS) (GIBCO). Fresh complete culture medium was added and replaced every 3 or 4 days (twice a week).” left out, “These cells were further expanded with 1:3-1:5 splitting in 175-cm^2 flasks (BD Falcon).” left out
The total numbers of nucleated and viable cells were determined with a hemocytometer, using Turck's solution and trypan blue stain, respectively. […]

STZ-treated mice = assay: STZ-treated mice, second experiment: body weight to day 80 and survival; format: in vivo; settings: for survivors: 80th day
From the text: In a second similar experiment performed with 6 mice in each group, the changes in body weight were followed for up to 80 days (when the last STZ-treated mouse died), and survival was followed for up to 100 days.
For the body weight (on the 80th day) and survival the following values were obtained: Untreated (6 survivors), 37.7 g; STZ-treated (one last survivor died on day 80, others survived for 22, 25, 27, 60, 75 days), 26.0 g; CCompound1-treated (6 survivors), 36.0 g; STZ+CCompound1 treated (6 survivors), 33.4 g; STZ+CCompound3-treated (5 survivors; one mouse died on day 78), 32.5 g. At the start of the experiment (day 0), the average body weight ranged from 28.6 to 29.8 g. Accordingly, by day 80, STZ-treated animals that were also treated with CCompound1 and CCompound3 gained about 50% of the weight gained by the untreated animals.

[3] = STZ + compound, 6 mice per group

Q: Which “effect on MSC proliferation” value ([1]; 10 μM, 10% serum) does the source give for `Cc1c(OCC(O)C[N+](C)(C)C)cc2c(=O)c3ccccc3sc2c1C.[Cl-]` (stereo not shown) [CCcompound1, [3-(3,4-Dimethyl-9-oxo-9H-thioxanthen-2-yloxy)-2-hydroxypropyl]trimethyl-ammonium chloride] here?
A: enhanced cell proliferation

Q: What about the “effect on expansion of stem cells” value ([1]; 5-10 μM, absence and presence of 2% serum, between days 3 and 6) of the same molecule?
A: significantly increased the expansion of stem cells

Q: What about the “effect on MSC cell numbers” value ([1]; 5-10 μM, absence or presence of 2% serum, first 3 days) of the same molecule?
A: slightly enhance cell numbers

Q: And the “Cell number per culture” value ([1]; 0% serum, day 2, 5 μM)?
A: 6.4 ± 2.0 ×10^−3

Q: And the “Cell number per culture” value ([1]; 0% serum, day 2, 10 μM)?
A: 5.9 ± 1.9 ×10^−3

Q: What about the “Cell number per culture” value ([1]; 0% serum, day 2, 50 μM) of the same molecule?
A: 4.0 ± 1.6 ×10^−3

Q: And the “Cell number per culture” value ([1]; 0% serum, day 4, 5 μM)?
A: 8.1 ± 2.1 ×10^−3

Q: And the “Cell number per culture” value ([1]; 0% serum, day 4, 10 μM)?
A: 6.8 ± 2.4 ×10^−3

Q: And the “Cell number per culture” value ([1]; 0% serum, day 4, 50 μM)?
A: 3.4 ± 1.1 ×10^−3

Q: What about the “Cell number per culture” value ([1]; 0% serum, day 6, 5 μM) of the same molecule?
A: 12.5 ± 1.6 ×10^−3

Q: What about the “Cell number per culture” value ([1]; 0% serum, day 6, 10 μM) of the same molecule?
A: 10.2 ± 1.4 ×10^−3

Q: And the “Cell number per culture” value ([1]; 0% serum, day 6, 50 μM)?
A: 3.8 ± 1.2 ×10^−3

Q: What about the “Cell number per culture” value ([1]; 2% serum, day 2, 5 μM) of the same molecule?
A: 7.1 ± 2.7 ×10^−3

Q: What about the “Cell number per culture” value ([1]; 2% serum, day 2, 10 μM) of the same molecule?
A: 6.3 ± 1.6 ×10^−3

Q: And the “Cell number per culture” value ([1]; 2% serum, day 2, 50 μM)?
A: 3.9 ± 1.1 ×10^−3

Q: What about the “Cell number per culture” value ([1]; 2% serum, day 4, 5 μM) of the same molecule?
A: 11.6 ± 2.4 ×10^−3

Q: What about the “Cell number per culture” value ([1]; 2% serum, day 4, 10 μM) of the same molecule?
A: 9.2 ± 2.3 ×10^−3

Q: What about the “Cell number per culture” value ([1]; 2% serum, day 4, 50 μM) of the same molecule?
A: 5.2 ± 1.6 ×10^−3

Q: What about the “Cell number per culture” value ([1]; 2% serum, day 6, 5 μM) of the same molecule?
A: 20.8 ± 2.5 ×10^−3

Q: And the “Cell number per culture” value ([1]; 2% serum, day 6, 10 μM)?
A: 17.4 ± 2.0 ×10^−3

Q: And the “Cell number per culture” value ([1]; 2% serum, day 6, 50 μM)?
A: 7.0 ± 3.3 ×10^−3

Q: What about the Cell number/culture ([1]; 2.0 μM, 0% serum, Day 3) of the same molecule?
A: 4.7 ± 3.5 ×10^−3

Q: And the Cell number/culture ([1]; 2.0 μM, 0% serum, Day 6)?
A: 6.2 ± 1.7 ×10^−3

Q: And the Cell number/culture ([1]; 2.0 μM, 2% serum, Day 3)?
A: 4.9 ± 2.6 ×10^−3

Q: And the Cell number/culture ([1]; 2.0 μM, 2% serum, Day 6)?
A: 16.4 ± 2.5 ×10^−3

Q: What about the Cell number/culture ([1]; 2.0 μM, 10% serum, Day 3) of the same molecule?
A: 5.9 ± 1.7 ×10^−3

Q: What about the Cell number/culture ([1]; 2.0 μM, 10% serum, Day 6) of the same molecule?
A: 33.3 ± 5.2 ×10^−3

Q: What about the Cell number/culture ([1]; 5.0 μM, 0% serum, Day 3) of the same molecule?
A: 5.9 ± 2.1 ×10^−3

Q: And the Cell number/culture ([1]; 5.0 μM, 0% serum, Day 6)?
A: 10.3 ± 2.5 ×10^−3

Q: And the Cell number/culture ([1]; 5.0 μM, 2% serum, Day 3)?
A: 7.2 ± 1.3 ×10^−3

Q: And the Cell number/culture ([1]; 5.0 μM, 2% serum, Day 6)?
A: 18.3 ± 4.8 ×10^−3

Q: What about the Cell number/culture ([1]; 5.0 μM, 10% serum, Day 3) of the same molecule?
A: 6.2 ± 2.6 ×10^−3

Q: And the Cell number/culture ([1]; 5.0 μM, 10% serum, Day 6)?
A: 36.4 ± 5.2 ×10^−3

Q: What about the Cell number/culture ([1]; 10.0 μM, 0% serum, Day 3) of the same molecule?
A: 6.3 ± 2.2 ×10^−3

Q: And the Cell number/culture ([1]; 10.0 μM, 0% serum, Day 6)?
A: 13.3 ± 3.2 ×10^−3

Q: And the Cell number/culture ([1]; 10.0 μM, 2% serum, Day 3)?
A: 5.6 ± 1.6 ×10^−3

Q: And the Cell number/culture ([1]; 10.0 μM, 2% serum, Day 6)?
A: 19.0 ± 3.8 ×10^−3

Q: What about the Cell number/culture ([1]; 10.0 μM, 10% serum, Day 3) of the same molecule?
A: 5.1 ± 1.7 ×10^−3

Q: What about the Cell number/culture ([1]; 10.0 μM, 10% serum, Day 6) of the same molecule?
A: 39.1 ± 4.1 ×10^−3

Q: What about the Cell number/culture ([1]; 25.0 μM, 0% serum, Day 3) of the same molecule?
A: 4.4 ± 1.7 ×10^−3

Q: What about the Cell number/culture ([1]; 25.0 μM, 0% serum, Day 6) of the same molecule?
A: 6.4 ± 3.1 ×10^−3

Q: And the Cell number/culture ([1]; 25.0 μM, 2% serum, Day 3)?
A: 4.7 ± 2.6 ×10^−3

Q: And the Cell number/culture ([1]; 25.0 μM, 2% serum, Day 6)?
A: 12.9 ± 4.9 ×10^−3

Q: What about the Cell number/culture ([1]; 25.0 μM, 10% serum, Day 3) of the same molecule?
A: 5.2 ± 2.1 ×10^−3

Q: What about the Cell number/culture ([1]; 25.0 μM, 10% serum, Day 6) of the same molecule?
A: 33.5 ± 5.3 ×10^−3

Q: And the Cell number/culture ([1]; 100.0 μM, 0% serum, Day 3)?
A: 1.1 ± 1.6 ×10^−3

Q: What about the Cell number/culture ([1]; 100.0 μM, 0% serum, Day 6) of the same molecule?
A: 1.3 ± 1.1 ×10^−3

Q: What about the Cell number/culture ([1]; 100.0 μM, 2% serum, Day 3) of the same molecule?
A: 1.5 ± 1.1 ×10^−3

Q: What about the Cell number/culture ([1]; 100.0 μM, 2% serum, Day 6) of the same molecule?
A: 5.8 ± 3.2 ×10^−3

Q: And the Cell number/culture ([1]; 100.0 μM, 10% serum, Day 3)?
A: 4.4 ± 2.5 ×10^−3

Q: What about the Cell number/culture ([1]; 100.0 μM, 10% serum, Day 6) of the same molecule?
A: 14.8 ± 3.1 ×10^−3

Q: And the “decrease of the effects on cell survival and proliferation when added late” value ([1]; compound added 6 hours after medium change, data not shown)?
A: 50-70%

Q: What about the “effect on number of attached cells” value [2] of the same molecule?
A: enhanced the number of attached cells

Q: And the “weight gained by day 80 relative to the weight gained by the untreated animals” value (STZ-treated mice; STZ + compound)?
A: about 50%

Q: And the “body weight on the 80th day” value (STZ-treated mice; [3])?
A: 33.4 g

Q: And the survivors (STZ-treated mice; [3])?
A: 6

Q: What about the “body weight on the 80th day” value (STZ-treated mice; compound alone, no STZ, 6 mice) of the same molecule?
A: 36.0 g

Q: And the survivors (STZ-treated mice; compound alone, no STZ, 6 mice per group)?
A: 6
